Test results: ChEMBL document CHEMBL1201862, “PubChem BioAssay data set” (2004)
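Interpolation was linear, between the two tested concentrations surrounding the appropriate level; five concentrations were tested over 48 hours in 96-well plates. At the GI50, growth is halved.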 The source made the active and inactive calls. Rule as the data show it: active = GI50 up to about 1.1 µM and inactive = higher.

What was measured:
Assay in all cases: NCI tumour cell line growth inhibition, 48 h
[1] = test system: MDA-MB-435
[2] = test system: UO-31
[3] = test system: SF-295
[4] = test system: LOX IMVI
[5] = test system: HCT-116
[6] = test system: SK-OV-3
[7] = test system: T47D
[8] = test system: SF-539
[9] = test system: MCF7
[10] = test system: SN12C
[11] = test system: Hs-578T
[12] = test system: SW-620
[13] = test system: OVCAR-8
[14] = test system: HL-60
[15] = test system: SF-268
[16] = test system: CCRF-CEM
[17] = test system: MDA-N
[18] = test system: SR
[19] = test system: MOLT-4
[20] = test system: NCI-H226
[21] = test system: ACHN
[22] = test system: HT-29
[23] = test system: KM12
[24] = test system: Malme-3M
[25] = test system: HOP-92
[26] = test system: SK-MEL-5
[27] = test system: EKVX
[28] = test system: IGROV-1
[29] = test system: A498
[30] = test system: COLO 205
[31] = test system: U-251
[32] = test system: SK-MEL-28
[33] = test system: NCI-H460
[34] = test system: UACC-257
[35] = test system: RXF 393
[36] = test system: OVCAR-3
[37] = test system: SNB-19
[38] = test system: NCI-H522
[39] = test system: DU-145
[40] = test system: PC-3
[41] = test system: TK-10
[42] = test system: 786-0
[43] = test system: SK-MEL-2
[44] = test system: NCI-H23
[45] = test system: HCT-15
[46] = test system: NCI/ADR-RES
[47] = test system: HOP-62
[48] = test system: BT-549
[49] = test system: A549
[50] = test system: OVCAR-4
[51] = test system: SNB-75
[52] = test system: UACC-62
[53] = test system: CAKI-1
[54] = test system: OVCAR-5
[55] = test system: M14
[56] = test system: HCC 2998
[57] = test system: MDA-MB-231
[58] = test system: K562
[59] = test system: RPMI-8226

Measured: GI50

CC(C)(C)[Si](C)(C)OCc1cccc(OCCOc2cccc(CO[Si](C)(C)C(C)(C)C)c2[N+](=O)[O-])c1[N+](=O)[O-]
> 100 µM: [45]
inactive: [1] > 100 µM | [2] > 100 µM | [3] > 100 µM | [4] > 100 µM | [5] > 100 µM | [6] > 100 µM | [7] > 100 µM | [8] > 100 µM | [9] > 100 µM | [10] > 100 µM | [11] > 100 µM | [12] > 100 µM | [13] > 100 µM | [14] > 100 µM | [15] > 100 µM | [16] > 100 µM | [17] > 100 µM | [18] 66.2 µM | [19] > 100 µM | [20] > 100 µM | [21] > 100 µM | [22] > 100 µM | [23] > 100 µM | [24] > 100 µM | [25] > 100 µM | [26] > 100 µM | [27] > 100 µM | [28] > 100 µM | [29] > 100 µM | [30] > 100 µM | [31] > 100 µM | [32] > 100 µM | [33] > 100 µM | [34] > 100 µM | [35] > 100 µM | [36] > 100 µM | [37] > 100 µM | [38] > 100 µM | [39] > 100 µM | [40] > 100 µM | [41] > 100 µM | [42] > 100 µM | [43] > 100 µM | [44] > 100 µM | [46] > 100 µM | [47] > 100 µM | [48] > 100 µM | [49] > 100 µM | [50] > 100 µM | [51] > 100 µM | [52] > 100 µM | [53] > 100 µM | [54] > 100 µM | [55] > 100 µM

COc1cc(/C=C2\C(=O)N(c3ccc(NC(C)=O)cc3)C(c3ccccc3)S2(=O)=O)cc(OC)c1OC (configuration not stated)
> 100 µM: [45]
inactive: [1] 92.9 µM | [2] 66.5 µM | [3] 78 µM | [4] > 100 µM | [5] > 100 µM | [6] > 100 µM | [7] 28.6 µM | [8] > 100 µM | [9] 45.5 µM | [10] > 100 µM | [12] > 100 µM | [13] > 100 µM | [14] 18.3 µM | [56] > 100 µM | [16] 44.5 µM | [57] > 100 µM | [17] 79.6 µM | [18] 36.7 µM | [58] 39.9 µM | [19] 25.1 µM | [20] > 100 µM | [21] > 100 µM | [22] > 100 µM | [23] > 100 µM | [24] > 100 µM | [25] > 100 µM | [26] 68.1 µM | [27] 91.4 µM | [28] > 100 µM | [29] > 100 µM | [59] 60.8 µM | [30] > 100 µM | [31] > 100 µM | [32] > 100 µM | [33] > 100 µM | [34] > 100 µM | [35] > 100 µM | [36] 93.3 µM | [37] > 100 µM | [38] > 100 µM | [39] > 100 µM | [40] 48.4 µM | [41] > 100 µM | [42] > 100 µM | [43] > 100 µM | [44] > 100 µM | [46] > 100 µM | [47] > 100 µM | [48] > 100 µM | [49] > 100 µM | [50] 60.8 µM | [51] 43.6 µM | [52] > 100 µM | [53] > 100 µM | [54] > 100 µM | [55] > 100 µM
